{
  "source": "paper PMC10323144",
  "about": "“Garbage in, garbage out: how reliable training data improved a virtual screening approach against SARS-CoV-2 MPro” (Frontiers in Pharmacology, 2023)",
  "origin": "cited, not measured here",
  "note": "Numbered stars: 1 amine (or outer) side, 2 acyl side, 3 side chain; on linkers, the order of the positions; unused ones are H or OH. Bridge positions count the residues as written; N and C are the ends. Square brackets hold non-standard residues; d marks the D form. Peptide text beside a SMILES is read from it. * marks the point of attachment. hTyr(3S-OH,4S-OH,3'-OSO3H) = N[C@H](C(=O)O)[C@H](O)[C@@H](O)c1ccc(O)c(OS(=O)(=O)O)c1; Orn(4R-OH,5R-OH) = O=C([C@H](C[C@@H](O)[C@@H](O)N[*:3])N[*:1])[*:2]; Pro(3S-OH,4S-Me) = C[C@H]1CN[C@H](C(=O)O)[C@H]1O; X1 = CCCCCOc1ccc(-c2cc(-c3ccc(C(=O)*)cc3)no2)cc1; Gln(3R-OH) = NC(=O)C[C@@H](O)[C@H](N)C(=O)O; Hyp = O=C(O)[C@@H]1C[C@@H](O)CN1; Cbz = O=C(OCc1ccccc1)*",
  "data": [
    {"test_system": "MPro", "conditions": "compiled from peer-reviewed sources (287 compounds) ref the 18 original articles; cited from earlier work", "values": [
      {"compound": "CC(C)C[C@@H](C=O)NC(=O)[C@H](CC(C)C)NC(=O)[C@H](CC(C)C)NC(=O)OCc1ccccc1", "note": "[MG-132] (Cbz-Leu-Leu-Leu-aldehyde)", "Class (MPro activity class)": "1 (Compounds with IC50 < 10 µM or with a percentage of enzyme inhibition >50% at 10 µM were labelled as ACTIVE)"},
      {"compound": "NS(=O)(=O)CCc1ccccc1CN1CCN(C(=O)CCl)CC1", "note": "[MIH-UNI-e573136b-5]", "Class (MPro activity class)": "1 (Compounds with IC50 < 10 µM or with a percentage of enzyme inhibition >50% at 10 µM were labelled as ACTIVE)"},
      {"compound": "O=C(O)CC[C@H]1CC[C@@](c2cc(F)ccc2F)(S(=O)(=O)c2ccc(Cl)cc2)CC1", "note": "[MK-0752]", "Class (MPro activity class)": "0 (compounds with IC50 > 20 μM, percentage inhibition <80% at 20 µM or 50 μM, or percentage enzyme inhibition <50% at 10 µM were labelled as INACTIVE)"},
      {"compound": "CC(C)C[C@H](NC(=O)CNC(=O)c1cc(Cl)ccc1Cl)B(O)O", "note": "[MLN2238]", "Class (MPro activity class)": "0 (compounds with IC50 > 20 μM, percentage inhibition <80% at 20 µM or 50 μM, or percentage enzyme inhibition <50% at 10 µM were labelled as INACTIVE)"},
      {"compound": "CCCCCOc1ccc(-c2cc(-c3ccc(C(=O)N[C@H]4C[C@@H](O)[C@@H](O)NC(=O)[C@@H]5[C@@H](O)[C@@H](C)CN5C(=O)[C@H]([C@H](O)CC(N)=O)NC(=O)[C@H]([C@H](O)[C@@H](O)c5ccc(O)c(OS(=O)(=O)O)c5)NC(=O)[C@@H]5C[C@@H](O)CN5C(=O)[C@H]([C@@H](C)O)NC4=O)cc3)no2)cc1", "note": "[Micafungin] (X1-[Orn(4R-OH,5R-OH)]T[Hyp][hTyr(3S-OH,4S-OH,3'-OSO3H)][Gln(3R-OH)][Pro(3S-OH,4S-Me)]; lactam 1-C)", "Class (MPro activity class)": "0 (compounds with IC50 > 20 μM, percentage inhibition <80% at 20 µM or 50 μM, or percentage enzyme inhibition <50% at 10 µM were labelled as INACTIVE)"},
      {"compound": "O=c1c(O)c(-c2cc(O)c(O)c(O)c2)oc2cc(O)cc(O)c12", "note": "[Myricetin]", "Class (MPro activity class)": "1 (Compounds with IC50 < 10 µM or with a percentage of enzyme inhibition >50% at 10 µM were labelled as ACTIVE)"},
      {"compound": "COc1ccc2c(c1)CN(C(=O)CCl)C(c1ccccc1)C2", "note": "(stereo not drawn) [NAU-LAT-64f4b287-4]", "Class (MPro activity class)": "1 (Compounds with IC50 < 10 µM or with a percentage of enzyme inhibition >50% at 10 µM were labelled as ACTIVE)"},
      {"compound": "Cc1cc(Cl)cc(CC2CCN(C(=O)CCl)CC2)c1", "note": "[NIR-THE-0d6461ce-8]", "Class (MPro activity class)": "1 (Compounds with IC50 < 10 µM or with a percentage of enzyme inhibition >50% at 10 µM were labelled as ACTIVE)"},
      {"compound": "Nc1cccc(C2CN(C(=O)CCl)Cc3ccccc32)c1", "note": "(stereo not drawn) [NIR-THE-c331be7a-1]", "Class (MPro activity class)": "1 (Compounds with IC50 < 10 µM or with a percentage of enzyme inhibition >50% at 10 µM were labelled as ACTIVE)"},
      {"compound": "N#Cc1cccc(C2CN(C(=O)CCl)Cc3ccccc32)c1", "note": "(stereo not drawn) [NIR-THE-c331be7a-2]", "Class (MPro activity class)": "1 (Compounds with IC50 < 10 µM or with a percentage of enzyme inhibition >50% at 10 µM were labelled as ACTIVE)"},
      {"compound": "Cc1cccc(C2CN(C(=O)CCl)Cc3ccccc32)c1", "note": "(stereo not drawn) [NIR-THE-c331be7a-6]", "Class (MPro activity class)": "1 (Compounds with IC50 < 10 µM or with a percentage of enzyme inhibition >50% at 10 µM were labelled as ACTIVE)"},
      {"compound": "N=C(N)c1ccc2cc(OC(=O)c3ccc(N=C(N)N)cc3)ccc2c1", "note": "[Nafamostat]", "Class (MPro activity class)": "0 (compounds with IC50 > 20 μM, percentage inhibition <80% at 20 µM or 50 μM, or percentage enzyme inhibition <50% at 10 µM were labelled as INACTIVE)"},
      {"compound": "CCCC[C@H](NC(=O)[C@@H]1[C@@H]2[C@H](CN1C(=O)[C@@H](NC(=O)NC1(CS(=O)(=O)C(C)(C)C)CCCCC1)C(C)(C)C)C2(C)C)C(=O)C(=O)NC1CC1", "note": "[Narlaprevir]", "Class (MPro activity class)": "1 (Compounds with IC50 < 10 µM or with a percentage of enzyme inhibition >50% at 10 µM were labelled as ACTIVE)"},
      {"compound": "Cc1c(O)cccc1C(=O)N[C@@H](CSc1ccccc1)[C@H](O)CN1C[C@H]2CCCC[C@H]2C[C@H]1C(=O)NC(C)(C)C", "note": "[Nelfinavir]", "Class (MPro activity class)": "0 (compounds with IC50 > 20 μM, percentage inhibition <80% at 20 µM or 50 μM, or percentage enzyme inhibition <50% at 10 µM were labelled as INACTIVE)"},
      {"compound": "COc1ccc(CC(NC(=O)C(C)NC(=O)CN2CCOCC2)C(=O)NC(Cc2ccccc2)C(=O)C2(C)CO2)cc1", "note": "(stereo not drawn) [ONX-0914]", "Class (MPro activity class)": "0 (compounds with IC50 > 20 μM, percentage inhibition <80% at 20 µM or 50 μM, or percentage enzyme inhibition <50% at 10 µM were labelled as INACTIVE)"},
      {"compound": "CC(C)(F)C[C@H](N[C@@H](c1ccc(-c2ccc(S(C)(=O)=O)cc2)cc1)C(F)(F)F)C(=O)NC1(C#N)CC1", "note": "[Odanacatib]", "Class (MPro activity class)": "0 (compounds with IC50 > 20 μM, percentage inhibition <80% at 20 µM or 50 μM, or percentage enzyme inhibition <50% at 10 µM were labelled as INACTIVE)"},
      {"compound": "COC(=O)N[C@H](C(=O)N1CCC[C@H]1C(=O)Nc1ccc([C@@H]2CC[C@@H](c3ccc(NC(=O)[C@@H]4CCCN4C(=O)[C@@H](NC(=O)OC)C(C)C)cc3)N2c2ccc(C(C)(C)C)cc2)cc1)C(C)C", "note": "[Ombitasvir]", "Class (MPro activity class)": "0 (compounds with IC50 > 20 μM, percentage inhibition <80% at 20 µM or 50 μM, or percentage enzyme inhibition <50% at 10 µM were labelled as INACTIVE)"},
      {"compound": "COC[C@H](NC(=O)c1cnc(C)s1)C(=O)N[C@@H](COC)C(=O)N[C@@H](Cc1ccccc1)C(=O)[C@@]1(C)CO1", "note": "[Oprozomib]", "Class (MPro activity class)": "0 (compounds with IC50 > 20 μM, percentage inhibition <80% at 20 µM or 50 μM, or percentage enzyme inhibition <50% at 10 µM were labelled as INACTIVE)"},
      {"compound": "COc1c(OC2OC(C(=O)O)C(O)C(O)C2O)cc2oc(-c3ccccc3)cc(=O)c2c1O", "note": "[Oroxylin A-7-O-β-D-glucuronide]", "Class (MPro activity class)": "0 (compounds with IC50 > 20 μM, percentage inhibition <80% at 20 µM or 50 μM, or percentage enzyme inhibition <50% at 10 µM were labelled as INACTIVE)"},
      {"compound": "CCOC(=O)C1=C[C@@H](OC(CC)CC)[C@H](NC(C)=O)[C@@H](N)C1", "note": "[Oseltamivir]", "Class (MPro activity class)": "0 (compounds with IC50 > 20 μM, percentage inhibition <80% at 20 µM or 50 μM, or percentage enzyme inhibition <50% at 10 µM were labelled as INACTIVE)"},
      {"compound": "CC(=O)c1cc([N+](=O)[O-])c(Sc2cccc(Cl)c2Cl)s1", "note": "[P005091]", "Class (MPro activity class)": "0 (compounds with IC50 > 20 μM, percentage inhibition <80% at 20 µM or 50 μM, or percentage enzyme inhibition <50% at 10 µM were labelled as INACTIVE)"},
      {"compound": "CC(=O)c1cc([N+](=O)[O-])c(Sc2ccc(F)cc2F)s1", "note": "[P22077]", "Class (MPro activity class)": "0 (compounds with IC50 > 20 μM, percentage inhibition <80% at 20 µM or 50 μM, or percentage enzyme inhibition <50% at 10 µM were labelled as INACTIVE)"},
      {"compound": "CC(C)CCC(=O)CC1c2ccccc2C(=O)N1c1ccc2ccc(Cl)nc2n1", "note": "(stereo not drawn) [PAGOCLONE]", "Class (MPro activity class)": "0 (compounds with IC50 > 20 μM, percentage inhibition <80% at 20 µM or 50 μM, or percentage enzyme inhibition <50% at 10 µM were labelled as INACTIVE)"},
      {"compound": "O=C(CCl)N1CCN(Cc2cc(Cl)cc(Cl)c2)CC1", "note": "[PAU-UNI-8cdd41c7-1]", "Class (MPro activity class)": "1 (Compounds with IC50 < 10 µM or with a percentage of enzyme inhibition >50% at 10 µM were labelled as ACTIVE)"},
      {"compound": "O=C(O)C(S)=Cc1c[nH]c2ccc(F)cc12", "note": "[PD151746]", "Class (MPro activity class)": "0 (compounds with IC50 > 20 μM, percentage inhibition <80% at 20 µM or 50 μM, or percentage enzyme inhibition <50% at 10 µM were labelled as INACTIVE)"},
      {"compound": "COc1cccc2[nH]c(C(=O)NC(CC(C)C)C(=O)NC(CC3CCNC3=O)C(=O)CO)cc12", "note": "(stereo not drawn) [PF-00835231]", "Class (MPro activity class)": "1 (Compounds with IC50 < 10 µM or with a percentage of enzyme inhibition >50% at 10 µM were labelled as ACTIVE)"},
      {"compound": "CCCc1ccc(OCC(=O)N(Cc2nc(-c3cccnc3)no2)C(C)C)cc1", "note": "[PI-1840]", "Class (MPro activity class)": "0 (compounds with IC50 > 20 μM, percentage inhibition <80% at 20 µM or 50 μM, or percentage enzyme inhibition <50% at 10 µM were labelled as INACTIVE)"}
    ]}
  ]
}
